Test results reported in patent US11999742B2, “Substituted pyrrolo[1,2-b]pyridazines as anthelmintics” (BOEHRINGER INGELHEIM VETMEDICA GMBH, priority 2021, dated 2024).

Assays:
[1] = system: Dirofilaria immitis (JYD-34 isolate); assay: In vivo efficacy at two dosages against resistant JYD-34 isolate in beagle dogs (Biological Example 7); conditions: for % Efficacy / Geometric Mean Live Heartworm Count: beagle dogs, JYD-34 isolate; for efficacy against adult heartworm: beagles
[2] = system: Dirofilaria immitis (JYD-34 isolate); assay: In vivo efficacy against resistant JYD-34 isolate in immune-deficient NSG mice; conditions: po, 1080 h, read-out: efficacy (live D. immitis larvae recovered), NSG mice, oral 25 mg/kg on Day 1, 15 and 30, count at Day 45
[3] = system: Dirofilaria immitis (JYD-34 isolate); assay: In vivo efficacy against resistant JYD-34 isolate in beagle dogs (Biological Example 8); conditions: for efficacy at preventing infections with adult heartworm: beagles
[4] = system: Dirofilaria immitis (JYD-34 isolate); assay: In vivo efficacy against resistant JYD-34 isolate in beagle dogs (Biological Example 6); conditions: necropsy day 120; for % Efficacy / Geometric Mean Live Heartworm Count: beagle dogs, JYD-34 isolate, 5 mg/kg oral, four times at monthly intervals (Days 0, 27, 55, 84); for efficacy against adult heartworm compared with Interceptor: beagles, oral 5 mg/kg four times at monthly intervals
[5] = 5 mg/kg single dose monthly for four months
[6] = 10 mg/kg (over 2 consecutive days, 5 mg/kg each) monthly for four months
[7] = 5 mg/kg monthly for four months on two consecutive days
[8] = beagle dogs, JYD-34 isolate, 5 mg/kg monthly for four months

Molecule: Cc1cc2c(N(C)C)c(C(=O)N[C@H]3CCOc4ccccc43)cnn2c1-c1cc(F)cc(Cl)c1Cl [Compound A493, 7-(2,3-dichloro-5-fluorophenyl)-N-[(4S)-3,4-dihydro-2H-1-benzopyran-4-yl]-4-(dimethylamino)-6-methylpyrrolo[1,2-b]pyridazine-3-carboxamide]
- % Efficacy [1, 5]: 99.0%
- Geometric Mean Live Heartworm Count [1, 5]: 0.3
- % Efficacy [1, 6]: 100.0%
- Geometric Mean Live Heartworm Count [1, 6]: 0
- efficacy against adult heartworm [1, 7]: 100%
- efficacy against adult heartworm ([1]; one single dosage of 5 mg/kg monthly for four months): 99%
- inhibition in vivo at 25 mg/kg [2]: > 90%

Molecule: Cc1cc2c(N3CCOCC3)c(C(=O)N[C@H]3CCOc4ccccc43)cnn2c1-c1cc(Cl)cc(Cl)c1Cl [Compound A501]
- inhibition in vivo at 25 mg/kg [2]: 70 to 90%

Molecule: Cc1cc2c(C(C)(C)C)c(C(=O)NN3CCOc4ccccc43)cnn2c1-c1cc(F)cc(Cl)c1Cl [Compound A495]
- inhibition in vivo at 25 mg/kg [2]: 50 to 70%

Molecule: CC(C)(C)c1c(C(=O)N[C@H]2CCOc3ccccc32)cnn2c(-c3c(F)cc(F)cc3F)c(Cl)cc12 [Compound A484]
- inhibition in vivo at 25 mg/kg [2]: 50 to 70%

Molecule: Cc1cc2c(C(C)C)c(C(=O)N[C@H]3CCOc4ccccc43)cnn2c1-c1cc(Cl)cc(Cl)c1 [Compound A465, 7-(3,5-dichlorophenyl)-N-[(4S)-3,4-dihydro-2H-1-benzopyran-4-yl]-6-methyl-4-(propan-2-yl)pyrrolo[1,2-b]pyridazine-3-carboxamide]
- inhibition in vivo at 25 mg/kg [2]: 50 to 70%

Molecule: Cc1cc2c(C(C)C)c(C(=O)N[C@H]3CCOc4ccccc43)cnn2c1-c1cc(F)cc(Cl)c1Cl [Compound A489]
- inhibition in vivo at 25 mg/kg [2]: 70 to 90%

Molecule: CC(C)(C)c1c(C(=O)N[C@H]2CCOc3ccccc32)cnn2c(-c3cc(Cl)cc(Cl)c3Cl)c(Cl)cc12 [Compound A522]
- inhibition in vivo at 25 mg/kg [2]: > 90%

Molecule: Cc1cc2c(C(C)(C)C)c(C(=O)N[C@H]3CCOc4ccccc43)cnn2c1-c1cc(Cl)cc(Cl)c1Cl [Compound A472]
- % Efficacy [3, 8]: 100.0%
- Live Heartworm Count (geo. mean) [3, 8]: 0
- efficacy at preventing infections with adult heartworm ([3]; 5 mg/kg body weight monthly for four months): 100%
- inhibition in vivo at 25 mg/kg [2]: > 90%

Molecule: Cc1cc2c(C(C)(C)C)c(C(=O)N[C@H]3CCOc4ccccc43)cnn2c1-c1cc(F)cc(Cl)c1Cl [Compound A481, 4-tert-butyl-7-(2,3-dichloro-5-fluorophenyl)-N-[(4S)-3,4-dihydro-2H-1-benzopyran-4-yl]-6-methylpyrrolo[1,2-b]pyridazine-3-carboxamide]
- % Efficacy [1, 5]: 64.2%
- Geometric Mean Live Heartworm Count [1, 5]: 11.3
- % Efficacy [1, 6]: 98.0%
- Geometric Mean Live Heartworm Count [1, 6]: 0.6
- efficacy against adult heartworm [1, 7]: about 98%
- inhibition in vivo at 25 mg/kg [2]: 70 to 90%

Molecule: milbemycin oxime [reference compound]
- efficacy at preventing infections with adult heartworm ([3]; Interceptor (milbemycin oxime) positive control group): 16.6%

Molecule: O=C(N[C@H]1CCOc2ccccc21)c1cnn2c(-c3cc(F)cc(Cl)c3Cl)c(Cl)cc2c1N1CC(F)(F)C1 [Compound A507]
- inhibition in vivo at 25 mg/kg [2]: > 90%

Molecule: Cc1cc2c(N3CCOCC3)c(C(=O)N[C@H]3CCOc4ccccc43)cnn2c1-c1cc(F)cc(F)c1F [Compound A491]
- inhibition in vivo at 25 mg/kg [2]: < 50%

Molecule: Cc1cc2c(C(C)(C)C)c(C(=O)N[C@H]3CCOc4ccccc43)cnn2c1-c1cc(F)cc(F)c1F [Compound A566]
- inhibition in vivo at 25 mg/kg [2]: 70 to 90%

Molecule: CN(C)c1c(C(=O)N[C@H]2CCOc3ccccc32)cnn2c(-c3cc(Cl)cc(Cl)c3Cl)c(Cl)cc12 [Compound A473]
- inhibition in vivo at 25 mg/kg [2]: > 90%

Molecule: CC(C)(C)c1c(C(=O)N[C@H]2CCOc3ccccc32)cnn2c(-c3cc(F)cc(F)c3F)c(Cl)cc12 [Compound A486]
- inhibition in vivo at 25 mg/kg [2]: 70 to 90%

Molecule: Cc1cc2c(N3CC(F)(F)C3)c(C(=O)N[C@H]3CCOc4ccccc43)cnn2c1-c1cc(F)cc(Cl)c1Cl [Compound A504]
- inhibition in vivo at 25 mg/kg [2]: > 90%

Molecule: Cc1cc2c(C(C)(C)C)c(C(=O)N[C@H]3CCOc4ccccc43)cnn2c1-c1cc(Cl)cc(Cl)c1 [Compound A464]
- % Efficacy [4]: 38.2%
- Geometric Mean Live Heartworm Count [4]: 16.7
- efficacy against adult heartworm compared with Interceptor [4]: more effective than the commercial product Interceptor™
- inhibition in vivo at 25 mg/kg [2]: 70 to 90%

Molecule: CC(C)(C)c1c(C(=O)N[C@H]2CCOc3ccccc32)cnn2c(-c3cc(F)cc(Cl)c3Cl)c(Cl)cc12 [Compound A502, 4-tert-butyl-6-chloro-7-(2,3-dichloro-5-fluorophenyl)-N-[(4S)-3,4-dihydro-2H-1-benzopyran-4-yl]pyrrolo[1,2-b]pyridazine-3-carboxamide]
- inhibition in vivo at 25 mg/kg [2]: 70 to 90%

Molecule: Cc1cc2c(C(C)(C)C)c(C(=O)N[C@H]3CCOc4ccccc43)cnn2c1-c1cc(F)cc(F)c1F [Compound A471]
- % Efficacy [4]: 39.0%
- Geometric Mean Live Heartworm Count [4]: 16.5
- efficacy against adult heartworm compared with Interceptor [4]: more effective than the commercial product Interceptor™
